# How the values were obtained:
# [1] = target: T1, Recombinant STAT3 protein (STAT3(G127-I722)) (Homo sapiens, UniProt P40763); experiment: STAT3 Fluorescence Polarization (FP) Assay; type: binding; details: STAT3(G127-I722) 25 nM, probe 5-FAM-GpYLPQTV-NH2 2 nM, 45-minute incubation
# T1 construct: Recombinant STAT3 protein (STAT3(G127-I722))
# Method: STAT3 Fluorescence Polarization (FP) Assay
# An FP assay was developed to determine IC50 values for test substances. Recombinant STAT3 protein (STAT3(G127-I722)) at 25 nM was combined with a fluorescently labeled, phosphotyrosine peptide probe (5-FAM-GpYLPQTV-NH2) at 2 nM in FP buffer (10 mM HEPES pH 7.4, 50 mM NaCl, 1 mM EDTA, 0.05% Tween 20.2 mM DTT). 50 μL of STAT3-probe mixture was added to serial diluted compounds in black, 96-well plates (Greiner BioOne 655076) to a final concentration of 1% DMSO. Reaction components were mixed, and FP was measured after 45-minute incubation at room temperature using a Tecan Spark multimode plate reader. FP signal (mP) was plotted against the log concentration of the test substances and IC50 values were calculated by nonlinear regression analysis using GraphPad Prism software. For STAT3 FP assay, A=≤100 nM; B=>100-1000 nM; C=>1-10 μM; and D=>10 μM.
# [2] = target: T2, Recombinant STAT6 protein (STAT6(W123-T658)) (Homo sapiens, UniProt P42226); experiment: STAT6 Fluorescence Polarization (FP) Assay; type: binding; details: STAT6(W123-T658) 250 nM, probe 5-FAM-ApYKPFQDLI-NH2 2 nM, 45-minute incubation
# T2 construct: Recombinant STAT6 protein (STAT6(W123-T658))
# T2 sequence (P42226 123-658): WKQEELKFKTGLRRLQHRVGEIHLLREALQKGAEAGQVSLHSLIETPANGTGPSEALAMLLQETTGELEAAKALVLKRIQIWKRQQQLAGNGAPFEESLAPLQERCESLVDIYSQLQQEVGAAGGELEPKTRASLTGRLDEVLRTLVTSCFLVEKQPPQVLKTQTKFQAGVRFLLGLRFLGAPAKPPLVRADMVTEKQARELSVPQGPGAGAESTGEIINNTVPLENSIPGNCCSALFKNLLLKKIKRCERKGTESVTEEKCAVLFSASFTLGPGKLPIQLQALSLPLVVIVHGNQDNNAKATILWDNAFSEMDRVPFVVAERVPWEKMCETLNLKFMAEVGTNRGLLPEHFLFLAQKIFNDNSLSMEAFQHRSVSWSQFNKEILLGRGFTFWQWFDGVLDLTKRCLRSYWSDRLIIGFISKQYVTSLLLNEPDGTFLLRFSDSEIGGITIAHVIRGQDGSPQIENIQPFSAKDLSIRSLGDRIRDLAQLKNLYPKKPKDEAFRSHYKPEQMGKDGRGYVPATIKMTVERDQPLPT
# Method: STAT6 Fluorescence Polarization (FP) Assay
# An FP assay was developed to determine IC50 values for test substances. Recombinant STAT6 protein (STAT6(W123-T658)) at 250 nM was combined with a fluorescently labeled, phosphotyrosine peptide probe (5-FAM-ApYKPFQDLI-NH2) at 2 nM in FP buffer (10 mM HEPES pH 7.4, 50 mM NaCl, 1 mM EDTA, 0.05% Tween 20.2 mM DTT). 50 μL of STAT6-probe mixture was added to serial diluted compounds in black, 96-well plates (Greiner BioOne 655076) to a final concentration of 1% DMSO. Reaction components were mixed, and FP was measured after 45-minute incubation at room temperature using a Tecan Spark multimode plate reader. FP signal (mP) was plotted against the log concentration of the test substances and IC50 values were calculated by nonlinear regression analysis using GraphPad Prism software. For STAT6 FP assay, A=≤300 nM; B=>300-3000 nM; C=>3-30 μM; and D=>30 μM.
# T1 sequence (P40763 127-722): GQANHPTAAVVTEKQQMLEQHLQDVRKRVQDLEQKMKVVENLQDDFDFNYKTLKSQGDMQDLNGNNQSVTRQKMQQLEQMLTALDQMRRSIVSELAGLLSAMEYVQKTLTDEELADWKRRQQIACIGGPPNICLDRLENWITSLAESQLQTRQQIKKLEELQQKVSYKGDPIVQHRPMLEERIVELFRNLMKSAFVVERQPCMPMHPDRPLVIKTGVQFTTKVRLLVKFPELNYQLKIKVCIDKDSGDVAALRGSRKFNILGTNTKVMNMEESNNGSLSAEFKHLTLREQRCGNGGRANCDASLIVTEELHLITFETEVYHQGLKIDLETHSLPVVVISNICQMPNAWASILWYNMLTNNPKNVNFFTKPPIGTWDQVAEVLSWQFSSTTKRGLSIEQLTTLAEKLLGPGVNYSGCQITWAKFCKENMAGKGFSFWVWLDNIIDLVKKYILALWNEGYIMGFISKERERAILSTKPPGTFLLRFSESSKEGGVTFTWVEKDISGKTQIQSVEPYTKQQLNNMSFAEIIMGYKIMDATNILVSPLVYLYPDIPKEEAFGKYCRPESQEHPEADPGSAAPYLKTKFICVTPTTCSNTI
SMILES,IC50 [1] [nM],IC50 [2] [nM]
"CC(=O)N1CC[C@H]2CC[C@@H](C(=O)N3CC(c4ccccc4)C3)N2C(=O)[C@@H](NC(=O)c2cc3cc(C(F)(F)P(=O)(O)O)ccc3[nH]2)C1 [Compound 100, ((2-(((5S,8S,10aR)-3-acetyl-6-oxo-8-(3-phenylazetidine-1-carbonyl)decahydropyrrolo[1,2-a][1,5]diazocin-5-yl)carbamoyl)-1H-indol-5-yl)difluoromethyl)phosphonic acid]",100 to 1000,300 to 3000
"CC(=O)N1CC[C@H]2CC[C@@H](C(=O)N3C[C@@H](C#N)[C@]4(C3)C(=O)Nc3ccccc34)N2C(=O)[C@@H](NC(=O)c2cc3cc(C(F)(F)P(=O)(O)O)ccc3s2)C1 (single isomer, unassigned) [Compound 12, ((2-(((5S,8S,10aR)-3-acetyl-8-((3S,4′S or 3R,4′R)-4′-cyano-2-oxospiro[indoline-3,3′-pyrrolidine]-1′-carbonyl)-6-oxodecahydropyrrolo[1,2-a][1,5]diazocin-5-yl)carbamoyl)benzo[b]thiophen-5-yl)difluoromethyl)phosphonic acid]",≤ 100,≤ 300
"CC(=O)N1CC[C@H]2CC[C@@H](C(=O)N3CCC[C@H]3Cc3cccnc3)N2C(=O)[C@@H](NC(=O)c2cc3cc(C(F)(F)P(=O)(O)O)ccc3s2)C1 [Compound 126, ((2-(((5S,8S,10aR)-3-acetyl-6-oxo-8-((S)-2-(pyridin-3-ylmethyl)pyrrolidine-1-carbonyl)decahydropyrrolo[1,2-a][1,5]diazocin-5-yl)carbamoyl)benzo[b]thiophen-5-yl)difluoromethyl)phosphonic acid]",1000 to 10000,300 to 3000
"CC(=O)N1CC[C@H]2CC[C@@H](C(=O)N3CC(C#N)(c4ccccn4)C3)N2C(=O)[C@@H](NC(=O)c2cc3cc(C(F)(F)P(=O)(O)O)ccc3s2)C1 [Compound 88, ((2-(((5S,8S,10aR)-3-acetyl-8-(3-cyano-3-(pyridin-2-yl)azetidine-1-carbonyl)-6-oxodecahydropyrrolo[1,2-a][1,5]diazocin-5-yl)carbamoyl)benzo[b]thiophen-5-yl)difluoromethyl)phosphonic acid]",≤ 100,300 to 3000
"CC(=O)N1CC[C@H]2CC[C@@H](C(=O)N3CCC4(C3)C(=O)Nc3ccccc34)N2C(=O)[C@@H](NC(=O)c2cc3cc(C(F)(F)P(=O)(O)O)ccc3s2)C1 (stereo partly drawn) [Compound 76, ((2-(((5S,8S,10aR)-3-acetyl-6-oxo-8-(2-oxospiro[indoline-3,3′-pyrrolidine]-1′-carbonyl)decahydropyrrolo[1,2-a][1,5]diazocin-5-yl)carbamoyl)benzo[b]thiophen-5-yl)difluoromethyl)phosphonic acid]",100 to 1000,300 to 3000
"CC(=O)N1CC[C@H]2CC[C@@H](C(=O)N3C[C@H](c4cc[nH]c(=O)c4)[C@@H](C#N)C3)N2C(=O)[C@@H](NC(=O)c2ccc3ccc(C(F)(F)P(=O)(O)O)cc3c2)C1 (single isomer, unassigned) [Compound 38, ((7-(((5S,8S,10aR)-3-acetyl-8-((3R,4S or 3S,4R)-3-cyano-4-(2-oxo-1,2-dihydropyridin-4-yl)pyrrolidine-1-carbonyl)-6-oxodecahydropyrrolo[1,2-a][1,5]diazocin-5-yl)carbamoyl)naphthalen-2-yl)difluoromethyl)phosphonic acid]",1000 to 10000,≤ 300
"CC(=O)N1CC[C@H]2CC[C@@H](C(=O)N3CC(c4ccccc4)[C@@H](c4ccccc4)C3)N2C(=O)[C@@H](NC(=O)c2cc3cc(C(F)(F)P(=O)(O)O)ccc3s2)C1 (relative stereo) [Compound 143, ((2-(((5S,8S,10aR)-3-acetyl-8-((rel-trans)-3,4-diphenylpyrrolidine-1-carbonyl)-6-oxodecahydropyrrolo[1,2-a][1,5]diazocin-5-yl)carbamoyl)benzo[b]thiophen-5-yl)difluoromethyl)phosphonic acid]",1000 to 10000,≤ 300
"CC(=O)N1CCC(NC(=O)c2ccc3ccc(C(F)(F)P(=O)(O)O)cc3c2)C(=O)N2C(CCC2C(=O)N2CC(C#N)C(c3ccccc3)C2)C1 (mixture of isomers) [Compound 4, ((7-(((5S,8S,10aR)-2-acetyl-8-((rel-trans)-3-cyano-4-phenylpyrrolidine-1-carbonyl)-6-oxodecahydropyrrolo[1,2-a][1,4]diazocin-5-yl)carbamoyl)naphthalen-2-yl)difluoromethyl)phosphonic Acid]",1000 to 10000,≤ 300

# The remaining lines, values ahead:
IC50 [1] [nM],IC50 [2] [nM],SMILES
100 to 1000,300 to 3000,"O=C(N[C@H]1CN(C(=O)NCc2ccccc2)CC[C@H]2CC[C@@H](C(=O)Nc3ccc(-c4ccccc4)cc3)N2C1=O)c1cc2cc(C(F)(F)P(=O)(O)O)ccc2s1 [Compound 251, ((2-(((5S,8S,10aR)-8-([1,1′-biphenyl]-4-ylcarbamoyl)-3-(benzylcarbamoyl)-6-oxodecahydropyrrolo[1,2-a][1,5]diazocin-5-yl)carbamoyl)benzo[b]thiophen-5-yl)difluoromethyl)phosphonic acid]"
> 10000,≤ 300,"Cc1ccc2onc(C(=O)N3CC[C@H]4CC[C@@H](C(=O)N5C(=O)N(c6cccnc6)C(=O)C56CC6)N4C(=O)[C@@H](NC(=O)c4ccc5ccc([C@H](F)P(=O)(O)O)cc5c4)C3)c2c1 [Compound 386, ((R)-(7-(((5S,8S, 10aR)-8-(5,7-dioxo-6-(pyridin-3-yl)-4,6-diazaspiro[2.4]heptane-4-carbonyl)-3-(5-methylbenzo[d]isoxazole-3-carbonyl)-6-oxodecahydropyrrolo [1,2-a][1,5]diazocin-5-yl)carbamoyl)naphthalen-2-yl)fluoromethyl)phosphonic acid]"
> 10000,≤ 300,"COc1ccc2onc(C(=O)N3CC[C@H]4CC[C@@H](C(=O)N5CCOCC5)N4C(=O)[C@@H](NC(=O)c4ccc5ccc(C(F)P(=O)(O)O)cc5c4)C3)c2c1 (stereo partly drawn) [Compound 362, (fluoro(7-(((5S,8S,10aR)-3-(5-methoxybenzo[d]isoxazole-3-carbonyl)-8-(morpholine-4-carbonyl)-6-oxodecahydropyrrolo [1,2-a][1,5]diazocin-5-yl)carbamoyl)naphthalen-2-yl)methyl)phosphonic acid]"
1000 to 10000,300 to 3000,"CN(C(=O)[C@@H]1CC[C@@H]2CCN(CC(F)(F)F)C[C@H](NC(=O)c3cc4cc(C(F)(F)P(=O)(O)O)ccc4[nH]3)C(=O)N21)c1ccccc1 [Compound 219, (difluoro(2-(((5S,8S,10aR)-8-(methyl(phenyl)carbamoyl)-6-oxo-3-(2,2,2-trifluoroethyl)decahydropyrrolo[1,2-a][1,5]diazocin-5-yl)carbamoyl)-1H-indol-5-yl)methyl)phosphonic acid]"
100 to 1000,≤ 300,"CC(=O)N1CC[C@H]2CC[C@@H](C(=O)N3CC(c4cc[nH]c(=O)c4)[C@@H](C#N)C3)N2C(=O)[C@@H](NC(=O)c2cc3cc(C(F)(F)P(=O)(O)O)ccc3s2)C1 (relative stereo) [Compound 145, ((2-(((5S,8S,10aR)-3-acetyl-8-((rel-trans)-3-cyano-4-(2-oxo-1,2-dihydropyridin-4-yl)pyrrolidine-1-carbonyl)-6-oxodecahydropyrrolo[1,2-a][1,5]diazocin-5-yl)carbamoyl)benzo[b]thiophen-5-yl)difluoromethyl)phosphonic acid]"
> 10000,300 to 3000,"Cc1cc(Cl)cc(C(=O)N2CC[C@H](NC(=O)c3ccc4ccc(C(F)P(=O)(O)O)cc4c3)C(=O)N3[C@H](CC[C@H]3C(=O)N3CCOCC3)C2)c1 (stereo partly drawn) [Compound 389, ((7-(((5S,8S,10aR)-2-(3-chloro-5-methyl-benzoyl)-8-(morpholine-4-carbonyl)-6-oxodecahydropyrrolo [1,2-a][1,4]diazocin-5-yl)carbamoyl)naphthalen-2-yl)fluoromethyl) phosphonic acid]"
